Results as given in the supplement of paper PMC10307832.

Key:
Experiment in all cases: relative viability (nuclei count vs DMSO), 5 days (fraction); higher = more cells survive
Erlotinib + Bortezomib = compound: C#Cc1cccc(Nc2ncnc3cc(OCCOC)c(OCCOC)cc23)c1 [Erlotinib] + CC(C)C[C@H](NC(=O)[C@H](Cc1ccccc1)NC(=O)c1cnccn1)B(O)O [Bortezomib] (partner 0.002 µM)
Method in brief: (§1)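 Relative viability was taken as the ratio of nuclei in treated wells to nuclei in vehicle wells. Lung cancer cell lines in 1536-well plates received compounds by pin tool one day after seeding, either one drug alone or a fixed anchor-drug dose plus five library-drug doses (not always all listed) in √10 steps. Nuclei were counted on 4× images after 5 days of treatment, and values are medians of duplicate plates.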

Erlotinib + Crizotinib = compound: C#Cc1cccc(Nc2ncnc3cc(OCCOC)c(OCCOC)cc23)c1 [Erlotinib] + C[C@@H](Oc1cc(-c2cnn(C3CCNCC3)c2)cnc1N)c1c(Cl)ccc(F)c1Cl [Crizotinib] (partner 1 µM)
Method in brief: as §1

Erlotinib + Dasatinib = compound: C#Cc1cccc(Nc2ncnc3cc(OCCOC)c(OCCOC)cc23)c1 [Erlotinib] + Cc1nc(Nc2ncc(C(=O)Nc3c(C)cccc3Cl)s2)cc(N2CCN(CCO)CC2)n1 [Dasatinib] (partner 0.075 µM)
Method in brief: as §1

Erlotinib + Pemetrexed = compound: C#Cc1cccc(Nc2ncnc3cc(OCCOC)c(OCCOC)cc23)c1 [Erlotinib] + Nc1nc2[nH]cc(CCc3ccc(C(=O)N[C@@H](CCC(=O)O)C(=O)O)cc3)c2c(=O)[nH]1 [Pemetrexed] (partner 0.2 µM)
Method in brief: as §1

AT9283 + Vorinostat = compound: O=C(Nc1c[nH]nc1-c1nc2ccc(CN3CCOCC3)cc2[nH]1)NC1CC1 [AT9283] + O=C(CCCCCCC(=O)Nc1ccccc1)NO [Vorinostat] (partner 1 µM)
Method in brief: as §1

Row | Cell Line | relative viability (Erlotinib + Bortezomib; first compound 0.02 µM) | relative viability (Erlotinib + Bortezomib; first compound 0.2 µM) | relative viability (Erlotinib + Bortezomib; first compound 0.6325 µM) | relative viability (Erlotinib + Bortezomib; first compound 2 µM) | relative viability (Erlotinib + Crizotinib; first compound 0.02 µM) | relative viability (Erlotinib + Crizotinib; first compound 0.2 µM) | relative viability (Erlotinib + Crizotinib; first compound 0.6325 µM) | relative viability (Erlotinib + Crizotinib; first compound 2 µM) | relative viability (Erlotinib + Dasatinib; first compound 0.02 µM) | relative viability (Erlotinib + Dasatinib; first compound 0.2 µM) | relative viability (Erlotinib + Dasatinib; first compound 0.6325 µM) | relative viability (Erlotinib + Dasatinib; first compound 2 µM) | relative viability (Erlotinib + Pemetrexed; first compound 0.02 µM) | relative viability (Erlotinib + Pemetrexed; first compound 0.2 µM) | relative viability (Erlotinib + Pemetrexed; first compound 0.6325 µM) | relative viability (Erlotinib + Pemetrexed; first compound 2 µM) | relative viability (AT9283 + Vorinostat; first compound 0.003 µM) | relative viability (AT9283 + Vorinostat; first compound 0.03 µM) | relative viability (AT9283 + Vorinostat; first compound 0.09487 µM) | relative viability (AT9283 + Vorinostat; first compound 0.3 µM)
1 | NCI-H1437 | 0.482 | 0.499 | 0.57 | 0.393 | 1.01 | 1.02 | 1.12 | 0.883 | 0.357 | 0.433 | 0.46 | 0.339 | 0.33 | 0.33 | 0.395 | 0.27 | 0.833 | 0.469 | 0.312 | 0.295
2 | NCI-H1650 | 0.204 | 0.204 | 0.176 | 0.178 | 0.85 | 0.721 | 0.924 | 0.643 | 0.283 | 0.265 | 0.282 | 0.325 | 0.337 | 0.324 | 0.352 | 0.298 | 0.608 | 0.487 | 0.375 | 0.194
3 | NCI-H1651 | 0.912 | 0.909 | 0.918 | 0.882 | 0.876 | 0.801 | 0.92 | 0.786 | 0.37 | 0.39 | 0.469 | 0.387 | 0.619 | 0.417 | 0.509 | 0.52 | 0.449 | 0.39 | 0.393 | 0.218
4 | NCI-H1666 | 0.864 | 0.74 | 0.766 | 0.615 | 1.02 | 0.856 | 0.66 | 0.428 | – | 0.759 | 0.828 | 0.64 | 0.81 | 0.693 | – | 0.753 | 1.18 | 0.769 | 0.527 | 0.606
5 | NCI-H1734 | 1.1 | 0.955 | 1.17 | 0.961 | 0.644 | 0.653 | 0.753 | 0.654 | 0.574 | 0.482 | 0.473 | 0.428 | 0.45 | 0.39 | 0.4 | 0.397 | 0.757 | 0.305 | 0.259 | 0.237
6 | NCI-H1755 | 1.06 | 1.01 | 0.957 | 0.9 | 0.889 | 0.888 | 0.904 | – | 0.451 | 0.409 | 0.386 | 0.433 | 0.477 | 0.398 | 0.402 | 0.368 | 0.74 | 0.784 | 0.54 | 0.398
7 | NCI-H1915 | 0.982 | 0.989 | 1.05 | 0.992 | 0.948 | 0.832 | 0.919 | 0.86 | 0.338 | 0.376 | 0.327 | 0.273 | 0.532 | 0.482 | 0.434 | 0.487 | 0.489 | 0.466 | 0.175 | 0.152
8 | NCI-H1975 | 0.381 | 0.355 | 0.451 | 0.303 | 0.947 | 0.96 | 1.04 | 0.694 | 0.391 | 0.407 | 0.372 | 0.205 | 0.288 | 0.294 | 0.292 | 0.263 | 0.742 | 0.666 | 0.504 | 0.281
9 | NCI-H1993 | 1.01 | 0.698 | 0.809 | 0.739 | 0.816 | 0.646 | 0.854 | 0.713 | 0.579 | 0.531 | 0.553 | 0.586 | 0.63 | 0.466 | 0.544 | 0.564 | 0.806 | 0.435 | 0.375 | 0.363
10 | NCI-H2009 | 1.06 | 1.03 | 1.19 | 1.01 | 1.02 | 1.07 | 1.15 | – | 0.365 | 0.351 | 0.432 | 0.238 | 1.07 | 0.999 | 1.01 | 1.04 | 0.742 | 0.674 | 0.29 | 0.147
11 | NCI-H2023 | 0.949 | 0.816 | 1.14 | 0.789 | 0.575 | 0.44 | 0.469 | 0.294 | 0.639 | 0.408 | 0.623 | 0.44 | 0.226 | 0.211 | 0.174 | 0.184 | 0.527 | 0.344 | 0.149 | 0.144
12 | NCI-H2085 | 1.04 | 0.979 | 0.889 | 0.766 | 0.794 | 0.835 | 0.739 | 0.57 | 0.235 | 0.2 | 0.266 | 0.249 | 0.867 | 0.695 | 0.716 | 0.474 | 0.775 | 0.755 | 0.631 | 0.305
